Test results published in ChEMBL document CHEMBL1201862, “PubChem BioAssay data set” (2004).
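Cultured in 96-well plates, cells were exposed to test compound for 48 hours across five concentrations. GI50 = concentration required for 50% inhibition of growth.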 The source made the active and inactive calls. Rule as the data show it: active = GI50 up to about 1.1 µM and inactive = higher.

Experiments:
Assay in all cases: DTP human tumour cell line panel, 48 h
SNB-19 = test system: SNB-19
OVCAR-8 = test system: OVCAR-8
HOP-62 = test system: HOP-62
HL-60 = test system: HL-60
PC-3 = test system: PC-3
RPMI-8226 = test system: RPMI-8226
SNB-75 = test system: SNB-75
M14 = test system: M14
786-0 = test system: 786-0
NCI-H23 = test system: NCI-H23
SF-539 = test system: SF-539
DU-145 = test system: DU-145
SR = test system: SR
SF-295 = test system: SF-295
UO-31 = test system: UO-31
MOLT-4 = test system: MOLT-4
COLO 205 = test system: COLO 205
T47D = test system: T47D
Hs-578T = test system: Hs-578T
SN12C = test system: SN12C
NCI/ADR-RES = test system: NCI/ADR-RES
A549 = test system: A549
RXF 393 = test system: RXF 393
K562 = test system: K562
SK-MEL-5 = test system: SK-MEL-5
NCI-H226 = test system: NCI-H226
MCF7 = test system: MCF7
SK-OV-3 = test system: SK-OV-3
CCRF-CEM = test system: CCRF-CEM
A498 = test system: A498
CAKI-1 = test system: CAKI-1
SK-MEL-28 = test system: SK-MEL-28
HOP-92 = test system: HOP-92
IGROV-1 = test system: IGROV-1
OVCAR-4 = test system: OVCAR-4
SK-MEL-2 = test system: SK-MEL-2
KM12 = test system: KM12
OVCAR-3 = test system: OVCAR-3
MDA-N = test system: MDA-N
SF-268 = test system: SF-268
HT-29 = test system: HT-29
HCT-116 = test system: HCT-116
Malme-3M = test system: Malme-3M
UACC-62 = test system: UACC-62
BT-549 = test system: BT-549
LOX IMVI = test system: LOX IMVI
MDA-MB-435 = test system: MDA-MB-435
OVCAR-5 = test system: OVCAR-5
SW-620 = test system: SW-620
EKVX = test system: EKVX
NCI-H522 = test system: NCI-H522
HCT-15 = test system: HCT-15
ACHN = test system: ACHN
U-251 = test system: U-251
HCC 2998 = test system: HCC 2998
NCI-H460 = test system: NCI-H460
UACC-257 = test system: UACC-257
MDA-MB-231 = test system: MDA-MB-231
TK-10 = test system: TK-10

CCC(=O)Nc1ccc(NC(C#N)c2cccc(Oc3ccccc3)c2)cc1 (centres undefined)
GI50 (SNB-19): > 100 µM (inactive)
GI50 (OVCAR-8): 26.2 µM (inactive)
GI50 (HOP-62): 49.7 µM (inactive)
GI50 (HL-60): 13.5 µM (inactive)
GI50 (PC-3): 63.4 µM (inactive)
GI50 (RPMI-8226): 23.1 µM (inactive)
GI50 (SNB-75): 42 µM (inactive)
GI50 (M14): 40.3 µM (inactive)
GI50 (786-0): 35.5 µM (inactive)
GI50 (NCI-H23): 45.2 µM (inactive)
GI50 (SF-539): 32.9 µM (inactive)
GI50 (DU-145): 48.3 µM (inactive)
GI50 (SR): 18.2 µM (inactive)
GI50 (SF-295): 45.7 µM (inactive)
GI50 (UO-31): 42.2 µM (inactive)
GI50 (MOLT-4): 4.29 µM (inactive)
GI50 (COLO 205): 40.4 µM (inactive)
GI50 (T47D): 42.3 µM (inactive)
GI50 (Hs-578T): 67.3 µM (inactive)
GI50 (SN12C): 51.8 µM (inactive)
GI50 (NCI/ADR-RES): 28.2 µM (inactive)
GI50 (A549): 62.5 µM (inactive)
GI50 (RXF 393): 38.6 µM (inactive)
GI50 (K562): 27.5 µM (inactive)
GI50 (SK-MEL-5): 22.6 µM (inactive)
GI50 (NCI-H226): 30.3 µM (inactive)
GI50 (MCF7): 35.2 µM (inactive)
GI50 (SK-OV-3): > 100 µM (inactive)
GI50 (CCRF-CEM): 32.1 µM (inactive)
GI50 (A498): > 100 µM (inactive)
GI50 (CAKI-1): 54.6 µM (inactive)
GI50 (SK-MEL-28): 53.3 µM (inactive)
GI50 (HOP-92): 34.8 µM (inactive)
GI50 (IGROV-1): 48.2 µM (inactive)
GI50 (OVCAR-4): 54.1 µM (inactive)
GI50 (SK-MEL-2): 35 µM (inactive)
GI50 (KM12): 58.6 µM (inactive)
GI50 (OVCAR-3): 52.4 µM (inactive)
GI50 (MDA-N): 34.4 µM (inactive)
GI50 (SF-268): 33.6 µM (inactive)
GI50 (HT-29): 33.8 µM (inactive)
GI50 (HCT-116): 34.5 µM (inactive)
GI50 (Malme-3M): 26.1 µM (inactive)
GI50 (UACC-62): 52 µM (inactive)
GI50 (BT-549): 57.7 µM (inactive)
GI50 (LOX IMVI): 21.4 µM (inactive)
GI50 (MDA-MB-435): 35.5 µM (inactive)
GI50 (OVCAR-5): > 100 µM (inactive)
GI50 (SW-620): 38.7 µM (inactive)
GI50 (EKVX): 67.6 µM (inactive)
GI50 (NCI-H522): 48 µM (inactive)
GI50 (HCT-15): 45 µM
GI50 (ACHN): 32.7 µM (inactive)

CN1CC[C@]2(c3cccc(O)c3)CC(=O)/C(=C/c3ccccc3)[C@@H]1C2.[O-][Cl+3]([O-])([O-])O
GI50 (SNB-19): 5.4 µM (inactive)
GI50 (OVCAR-8): 3.03 µM (inactive)
GI50 (HOP-62): 3.88 µM (inactive)
GI50 (HL-60): 1.8 µM (inactive)
GI50 (PC-3): 1.76 µM (inactive)
GI50 (RPMI-8226): 1.86 µM (inactive)
GI50 (U-251): 2.54 µM (inactive)
GI50 (HCC 2998): 2.59 µM (inactive)
GI50 (SNB-75): 2 µM (inactive)
GI50 (M14): 2.73 µM (inactive)
GI50 (NCI-H460): 2.17 µM (inactive)
GI50 (786-0): 2.44 µM (inactive)
GI50 (NCI-H23): 4.97 µM (inactive)
GI50 (SF-539): 1.95 µM (inactive)
GI50 (DU-145): 5.52 µM (inactive)
GI50 (SR): 2.41 µM (inactive)
GI50 (SF-295): 3.24 µM (inactive)
GI50 (UO-31): 2.51 µM (inactive)
GI50 (MOLT-4): 2.04 µM (inactive)
GI50 (COLO 205): 6.97 µM (inactive)
GI50 (UACC-257): 3.24 µM (inactive)
GI50 (Hs-578T): 4.62 µM (inactive)
GI50 (SN12C): 2.99 µM (inactive)
GI50 (NCI/ADR-RES): 2.98 µM (inactive)
GI50 (A549): 3.42 µM (inactive)
GI50 (RXF 393): 1.49 µM (inactive)
GI50 (K562): 1.64 µM (inactive)
GI50 (SK-MEL-5): 3.12 µM (inactive)
GI50 (NCI-H226): 15 µM (inactive)
GI50 (MCF7): 2.19 µM (inactive)
GI50 (CCRF-CEM): 2.13 µM (inactive)
GI50 (A498): 6.98 µM (inactive)
GI50 (CAKI-1): 2.29 µM (inactive)
GI50 (SK-MEL-28): 3.06 µM (inactive)
GI50 (HOP-92): 2.09 µM (inactive)
GI50 (IGROV-1): 4.39 µM (inactive)
GI50 (OVCAR-4): 3.37 µM (inactive)
GI50 (MDA-MB-231): 2.34 µM (inactive)
GI50 (SK-MEL-2): 2.95 µM (inactive)
GI50 (KM12): 3.61 µM (inactive)
GI50 (OVCAR-3): 1.97 µM (inactive)
GI50 (MDA-N): 1.58 µM (inactive)
GI50 (SF-268): 3.17 µM (inactive)
GI50 (HT-29): 2.62 µM (inactive)
GI50 (HCT-116): 2.31 µM (inactive)
GI50 (Malme-3M): 2.64 µM (inactive)
GI50 (BT-549): 2.44 µM (inactive)
GI50 (LOX IMVI): 1.94 µM (inactive)
GI50 (MDA-MB-435): 1.72 µM (inactive)
GI50 (OVCAR-5): 14.4 µM (inactive)
GI50 (SW-620): 2.23 µM (inactive)
GI50 (EKVX): 6.92 µM (inactive)
GI50 (NCI-H522): 2.74 µM (inactive)
GI50 (HCT-15): 1.66 µM
GI50 (ACHN): 2.25 µM (inactive)
GI50 (TK-10): 13.9 µM (inactive)
